Publication PMC10761937, “Functional engineering of human iPSC‐derived parasympathetic neurons enhances responsiveness to gastrointestinal hormones” (FEBS Open Bio, 2023)

Tested on: GLP1R
Assay: cAMP accumulation assay, GLP1R‐HEK293T cells
Format: cell-based, human
Conditions: 0, 0.01, 0.1, 1, 10, 100 nM GLP1, 0.5 mM IBMX, 37 °C, 30 min, cAMP ELISA, n = 3
Procedure: HEK293T cells (Lenti‐X 293T Cell line; TaKaRa, Shiga, Japan) were maintained in Dulbecco's Modified Eagle Medium (DMEM; Fujifilm Wako Pure Chemical Industries, Osaka, Japan) supplemented with 10% fetal bovine serum (Biowest, Nuaillé, France), 1% non‐essential amino acids (NEAA) (Fujifilm Wako Pure Chemical Industries), and 1% penicillin–streptomycin (P/S) (Fujifilm Wako Pure Chemical Industries) and cultured in non‐coated culture plates at 37 °C and in an incubator with 5% CO2. The culture medium was replaced every 2–3 days. At 80–90% confluence, the cell colonies were digested into single cells using TrypLE Express (Thermo Fisher Scientific). The resulting cells were used for lentiviral transfection and agonist experiments.
Figure S1 presents the protocol used for this experiment. Lentiviral vectors were acquired from VectorBuilder (VectorBuilder Japan, Inc., Kanagawa, Japan). The mCherry expression vector (pLV‐Puro‐EF1A‐mCherry) was used as a control. pMD2.g plasmid (Addgene plasmid# 12259; RRID: Addgene 12259, Watertown, MA, USA) and psPAX2 plasmids (Addgene plasmid# 12260; RRID: Addgene 12260) were used as packaging plasmids. To produce lentiviruses, HEK293T cells were transduced with lentiviral vectors and packaging constructs containing 2 μg of lentivirus plasmids, 1 μg of pMD2.g, and 1 μg of psPAX2 plasmids using polyethyleneimine (PEI; Polysciences Inc., Warrington, PA, USA). […]

Question: How did the cAMP production turn out when “GLP1: GLP1 (4280‐v; Peptide Institute, Inc.); GLP1 (7–37) in Ca2+ imaging (HAEGTFTSDVSSYLEGQAAKEFIAWLVKGRG; Glucagon-like peptide 1(7-37); UniProt P01275 98-128, looked up)” was run?
Answer: Its cAMP production is “increased cAMP production with increasing GLP1 concentration”.
